The text below walks through data of patent US20150252370A1, “USE OF ATX INHIBITORS FOR TREATMENT OR PREVENTION OF INFLUENZA VIRUS A INFECTIONS” (Academia Sinica, priority 2014, published 2015).

SMILES strings stand for the structures. “Also recorded” adds a separate entry of the source.

In test [1] the test system is Influenza A virus (IAV) (A/WSN/33, H1N1). The class given is cell-based.
Test [2] relates to metastatic breast cancer. Particulars: mouse models of metastatic breast cancer; cited from earlier work.
Test [3] has as its target T1, human AXL (Homo sapiens, UniProt P30530).
T1 construct: Human AXL (NM_021913.4) were PCR amplified using the primers human AXL forward; expressed in transfected cells
T1 sequence (P30530 26-894): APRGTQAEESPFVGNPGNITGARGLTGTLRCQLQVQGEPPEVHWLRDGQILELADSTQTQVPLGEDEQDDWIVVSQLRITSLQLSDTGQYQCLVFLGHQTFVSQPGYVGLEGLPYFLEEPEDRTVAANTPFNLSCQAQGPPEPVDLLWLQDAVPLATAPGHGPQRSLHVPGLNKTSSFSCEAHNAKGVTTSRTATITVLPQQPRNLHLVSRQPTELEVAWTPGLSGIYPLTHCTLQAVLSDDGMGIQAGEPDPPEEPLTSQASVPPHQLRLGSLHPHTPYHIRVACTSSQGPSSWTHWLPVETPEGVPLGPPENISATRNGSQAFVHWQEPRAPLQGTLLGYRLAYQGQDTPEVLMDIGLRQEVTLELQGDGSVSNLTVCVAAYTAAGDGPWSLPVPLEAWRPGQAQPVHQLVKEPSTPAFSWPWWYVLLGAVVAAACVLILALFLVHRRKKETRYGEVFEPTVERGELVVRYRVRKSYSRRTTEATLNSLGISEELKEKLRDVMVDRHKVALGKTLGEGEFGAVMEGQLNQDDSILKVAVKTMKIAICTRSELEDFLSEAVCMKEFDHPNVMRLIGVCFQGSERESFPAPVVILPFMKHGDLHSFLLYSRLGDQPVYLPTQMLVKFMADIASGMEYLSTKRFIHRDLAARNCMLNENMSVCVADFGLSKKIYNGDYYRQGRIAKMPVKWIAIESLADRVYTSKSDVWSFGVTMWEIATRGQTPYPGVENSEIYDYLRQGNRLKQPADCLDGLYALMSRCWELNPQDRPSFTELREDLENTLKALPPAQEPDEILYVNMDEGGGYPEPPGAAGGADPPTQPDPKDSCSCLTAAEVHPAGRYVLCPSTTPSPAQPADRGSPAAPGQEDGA
The class given is cell-based.

`Nc1nc(Nc2ccc3c(c2)CCC(N2CCCC2)CC3)nn1-c1cc2c(nn1)-c1ccccc1CCC2` (stereo not shown) [R428, 1-(6,7-dihydro-5H-benzo[6,7]cyclohepta[1,2-c]pyridazin-3-yl)-N3-(7-(pyrrolidin-1-yl)-6,7,8,9-tetrahydro-5H-benzo[7]annulen-2-yl)-1H-1,2,4-triazole-3,5-diamine]: in test [1], the “IAV replication (NP and NS1 protein expression)” value is on record as “blocked virus infection; also recorded: significantly inhibited influenza A virus infection; also recorded: inhibited IAV replication”; the “time of addition at which R428 inhibits IAV replication” value is recorded as “before or during the first hour, but not later”. In addition, the “tumor spread and survival” value in test [2] was “block tumor spread and prolong survival”. Also, the “AXL autophosphorylation stimulated by Gas6” value in test [3] is reported as “block autophosphorylation”.
